According to PMC3691235, “Discovery of a Novel Dual Fungal CYP51/Human 5-Lipoxygenase Inhibitor: Implications for Anti-Fungal Therapy” (PLoS ONE, 2013):
Read-outs that look alike come from different tables or passages of the source.

Experiments:
[1] = molecular target: T1, C. albicans CYP51 (CaCYP51) (Candida albicans, UniProt P10613); experiment: biochemical; format: binding
T1 construct: made in house; host or cells: E. coli
Protocol: (§1) Native cytochrome P450 concentrations were determined by reduced carbon monoxide difference spectra, based on an extinction coefficient of 91 mM^−1 cm^−1 [42], [43]. Binding of azole antifungal agents to 5 µM CaCYP51 and 5 µM HsCYP51 were performed as previously described, [44], using 0.25 and 0.5 mg mL^−1 stock solutions of ketoconazole and ketaminazole in DMSO. Azole antifungal agents were progressively titrated against the CYP51 protein in 0.1 M Tris-HCl (pH 8.1) and 25% (wt/vol) glycerol, with the spectral difference determined after each incremental addition of azole. The dissociation constant (Kd) of the enzyme-azole complex was determined by nonlinear regression (Levenberg-Marquardt algorithm) of ΔA peak-trough against azole concentration using a rearrangement of the Morrison equation [45] and fitted by the computer program ProFit 6.1.12 (QuantumSoft, Zurich, Switzerland).

[2] = molecular target: T2, CaCYP51 (Candida albicans, UniProt P10613); experiment: CYP51 reconstitution assay, CaCYP51; format: biochemical
T2 construct: made in house; host or cells: E. coli
Protocol: Azole antifungal agents were added in 5 µL DMSO followed by incubation for 5 minutes at 37°C prior to assay initiation with 4 mM β-NADPHNa4, with shaking for a further 10 minutes at 37°C. Sterol metabolites were recovered by extraction with ethyl acetate followed by derivatization with N,O-bis(trimethylsilyl)trifluoroacetamide and […] prior to analysis by gas chromatography mass spectrometry.

[3] = molecular target: T3, Homo sapiens CYP51 (HsCYP51) (Homo sapiens, UniProt Q16850); experiment: Azole binding to HsCYP51 (type II difference spectra titration); conditions: for Kd: 5 µM HsCYP51, Morrison equation
T3 construct: made in house; host or cells: E. coli
T3 sequence (Q16850 1-509): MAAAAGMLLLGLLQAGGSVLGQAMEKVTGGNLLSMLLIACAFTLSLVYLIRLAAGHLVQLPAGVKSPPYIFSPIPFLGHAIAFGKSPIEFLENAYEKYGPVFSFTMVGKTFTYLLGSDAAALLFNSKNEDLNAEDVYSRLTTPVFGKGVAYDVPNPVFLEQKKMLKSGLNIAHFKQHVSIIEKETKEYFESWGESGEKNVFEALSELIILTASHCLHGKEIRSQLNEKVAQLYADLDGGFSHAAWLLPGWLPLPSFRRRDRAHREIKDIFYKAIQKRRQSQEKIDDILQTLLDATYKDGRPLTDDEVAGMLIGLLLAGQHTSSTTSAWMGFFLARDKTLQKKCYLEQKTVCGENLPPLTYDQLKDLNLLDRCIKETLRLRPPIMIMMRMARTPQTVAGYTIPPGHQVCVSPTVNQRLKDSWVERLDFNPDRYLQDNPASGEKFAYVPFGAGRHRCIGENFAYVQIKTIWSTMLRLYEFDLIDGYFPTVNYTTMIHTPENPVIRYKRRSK
Protocol: as §1

[4] = molecular target: T4, Human leukocyte 5-lipoxygenase (Homo sapiens, UniProt P09917); conditions: [13], cited from earlier work
T4 construct: made in house
T4 sequence (P09917 1-674): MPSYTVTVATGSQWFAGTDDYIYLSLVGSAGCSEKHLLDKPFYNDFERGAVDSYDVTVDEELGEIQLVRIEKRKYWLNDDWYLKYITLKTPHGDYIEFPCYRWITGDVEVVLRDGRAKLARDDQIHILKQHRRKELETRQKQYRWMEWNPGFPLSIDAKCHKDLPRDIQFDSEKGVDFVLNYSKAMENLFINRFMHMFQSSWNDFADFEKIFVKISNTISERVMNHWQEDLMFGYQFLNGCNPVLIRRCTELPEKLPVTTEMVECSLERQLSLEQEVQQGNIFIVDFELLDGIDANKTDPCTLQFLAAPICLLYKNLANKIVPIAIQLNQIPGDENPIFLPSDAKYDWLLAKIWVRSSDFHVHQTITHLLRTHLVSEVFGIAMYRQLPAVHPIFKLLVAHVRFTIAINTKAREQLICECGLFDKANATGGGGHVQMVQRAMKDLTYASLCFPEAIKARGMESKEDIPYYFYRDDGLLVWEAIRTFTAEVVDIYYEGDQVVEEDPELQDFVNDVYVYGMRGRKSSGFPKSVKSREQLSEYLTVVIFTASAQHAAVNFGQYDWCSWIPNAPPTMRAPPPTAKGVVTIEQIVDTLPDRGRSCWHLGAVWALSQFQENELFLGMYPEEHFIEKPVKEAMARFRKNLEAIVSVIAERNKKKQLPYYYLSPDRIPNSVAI

[5] = molecular target: T3, Homo sapiens CYP51 (HsCYP51); design: method as in PMID 20149798; conditions: ref [40]; read-out: Kd with HsCYP51, previously reported; cited from earlier work

T1 sequence (P10613 whole entry): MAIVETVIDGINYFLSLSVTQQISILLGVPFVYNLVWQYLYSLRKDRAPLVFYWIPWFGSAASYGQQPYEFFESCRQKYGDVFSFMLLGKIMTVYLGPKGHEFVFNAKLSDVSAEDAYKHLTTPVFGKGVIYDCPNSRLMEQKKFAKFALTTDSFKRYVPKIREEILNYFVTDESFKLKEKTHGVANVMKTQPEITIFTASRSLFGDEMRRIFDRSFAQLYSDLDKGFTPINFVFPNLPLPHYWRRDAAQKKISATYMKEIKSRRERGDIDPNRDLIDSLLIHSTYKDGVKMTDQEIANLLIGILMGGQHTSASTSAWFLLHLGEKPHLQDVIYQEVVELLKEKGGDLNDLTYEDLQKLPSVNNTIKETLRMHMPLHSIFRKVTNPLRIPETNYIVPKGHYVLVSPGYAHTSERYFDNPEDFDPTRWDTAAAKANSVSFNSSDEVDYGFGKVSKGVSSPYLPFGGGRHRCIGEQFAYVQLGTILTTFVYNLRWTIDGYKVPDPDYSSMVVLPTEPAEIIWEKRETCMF
T2 sequence (P10613 whole entry): as above

Compound CC(=O)N1CCN(c2ccc(NCC3COC(Cn4ccnc4)(c4ccc(Cl)cc4Cl)O3)cc2)CC1 (centres unmarked) [ketaminazole (16), ketaminazole] has a Kd ([1]; 5 µM CaCYP51, Morrison equation, read-out: Kd with CaCYP51) of 43 ± 5 nM, an IC50 ([1]; in vitro) of 43 nM and an IC50 ([2]; 1 µM CaCYP51, 50 µM lanosterol, read-out: CaCYP51 IC50) of roughly 900 nM. For the same compound, the CYP51 activity retained ([2]; CaCYP51, at 4 µM compound) was roughly 15%, the Kd [3] was 731 ± 69 nM and the “selectivity for yeast CYP51 relative to human CYP51” value ([3]; yeast vs human CYP51) was 17 fold.
In the case of CC(=O)N1CCN(c2ccc(OCC3COC(Cn4ccnc4)(c4ccc(Cl)cc4Cl)O3)cc2)CC1 (centres unmarked) [ketoconazole, reference compound], the Kd [1] is reported as 27 ± 5 nM, the “fold difference in binding to CaCYP51 compared to ketaminazole (16)” value ([1]; ratio of Kd values) is reported as 1.6 fold and the IC50 [2] is reported as roughly 500 nM. The Kd [3] was 42 ± 16 nM, the “fold tighter binding to HsCYP51 compared to ketaminazole (16)” value ([3]; ratio of Kd values) was 17 fold and the IC50 ([4]; read-out: 5-LOX IC50, ref [12]) was greater than 50000 nM. For the same compound, the Kd [5] was roughly 180 nM.
For CC[C@](O)(c1nnc(NCc2ccc3c(-c4ccc(F)cc4)cc(=O)oc3c2)o1)C(F)(F)F [setileuton, reference compound], the IC50 ([4]; ref [2], read-out: 5-LOX IC50, literature value) is listed as 45 ± 10 nM.
